System: BMDM cells
Experiment: CCK8 cell proliferation inhibition assay on CSF1-stimulated bone marrow-derived macrophages
Type: cell-based, mice (BALB/c)
Settings: Mus musculus, 72 h exposure
Protocol: Mice (BALB/c) were subjected to euthanasia and then immersed in 75% alcohol for 3-5 min. The tibias and femurs of the mice were removed with ophthalmic forceps and ophthalmic clips on an ultraclean table. The tibial and femoral joints were cut off and bone marrow cells were washed out with a sterile buffer. Bone marrow cells were filtered with a 70 µm nylon membrane. The filtrate was centrifuged and the supernatant was discarded. An erythrocyte lysate was added to the pellets, which were allowed to incubate for 3-4 min. Then, a sterile buffer was added to stop the lysis reaction. The reactant was centrifuged and the supernatant was discarded, thereby yielding bone marrow cell pellets. The cells were cultured in 1640 medium (supplemented with FBS and 10 ng/mL of CSF1) for 5 to 7 days and identified as macrophages by flow cytometry. CCK8 cell counting kits were used in this assay. Bone marrow-derived macrophages, after induction by CSF1 for 5 to 7 days, were seeded into 96-well culture plates and allowed to incubate overnight. Then, the cells were exposed to compounds at various concentrations for 72 h. A blank control group was set. 10 μL of CCK8 reagent was added to each well and the places were placed in an incubator for 4 to 12 h. The plates were read with a microplate reader at a wavelength of 450 nm. […] Each experiment was independently repeated for three times.

**Q.** For `Cc1cc(NC(=O)c2cccc3cc(-c4cccc5[nH]nc(N)c45)ccc23)ccc1F` [Compound I], which IC50 is on record?
**A.** 93 nM

Source: US20230382871A1, “CSF1R KINASE INHIBITOR AND USE THEREOF” (SHANGHAI INSTITUTE OF MATERIA MEDICA, CHINESE ACADEMY OF …, priority 2020, published 2023)
